ChEMBL document CHEMBL1121896, “Potential histamine H2-receptor blockers. 3- and 2-indole derivatives as immobile analogues of tautomeric forms of cimetidine” (J Med Chem, 1981)
Active and inactive are the calls of the source. The calls are words filed in the database; no cut-off is given here.

Assays:
[1] = biological target: Histamine H2 receptor (Cavia porcellus) (UniProt P47747); assay: Competitive antagonism of compound at histamine H2 receptor compared to 4-methylhistamine induced chronotropic response in guinea pig atria expressed as potency ratio; Not significantly greater than 1.0 (Inactive); type: functional
Histamine H2 receptor (Cavia porcellus), sequence (P47747 whole entry): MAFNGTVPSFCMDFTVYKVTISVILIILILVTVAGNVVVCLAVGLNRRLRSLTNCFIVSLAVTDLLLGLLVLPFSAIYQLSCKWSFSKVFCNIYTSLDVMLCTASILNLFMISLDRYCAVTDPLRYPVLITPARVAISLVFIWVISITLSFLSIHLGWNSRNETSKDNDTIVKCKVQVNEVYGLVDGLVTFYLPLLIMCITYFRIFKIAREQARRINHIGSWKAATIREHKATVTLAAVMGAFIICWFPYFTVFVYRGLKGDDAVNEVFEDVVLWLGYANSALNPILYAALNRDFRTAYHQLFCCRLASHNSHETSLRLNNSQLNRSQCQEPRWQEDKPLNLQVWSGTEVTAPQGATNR

[2] = biological target: Histamine H2 receptor (Cavia porcellus) (UniProt P47747); assay: Ratio of potency (3*10e-5M) to that of agonist for histamine H2 receptor, in an assay for guinea pig atria chronotropic response; type: functional
[3] = biological target: Histamine H2 receptor (Cavia porcellus) (UniProt P47747); assay: Competitive antagonism of compound at histamine H2 receptor compared to 4-methylhistamine as effect on resting heart rate in guinea pig atria expressed as potency ratio; Inactive; type: functional, tissue-based
[4] = biological target: Histamine H2 receptor (Cavia porcellus) (UniProt P47747); assay: Competitive antagonism of compound at histamine H2 receptor compared to 4-methylhistamine as effect on resting heart rate in guinea pig atria expressed as potency ratio; (Inactive); type: functional, tissue-based
[5] = biological target: Histamine H2 receptor (Cavia porcellus) (UniProt P47747); assay: Competitive antagonism of compound at histamine H2 receptor compared to 4-methylhistamine induced chronotropic response in guinea pig atria; + Potency ratio greater than 1.0; type: functional
[6] = biological target: Histamine H2 receptor (Cavia porcellus) (UniProt P47747); assay: Competitive antagonism of compound at histamine H2 receptor compared to 4-methylhistamine induced chronotropic response in guinea pig atria; nonparallel shift in dose response curve; type: functional; details: filed as antagonist
[7] = biological target: Histamine H2 receptor (Cavia porcellus) (UniProt P47747); assay: Ratio of potency (3*10e-5M) to that of agonist for Histamine H2 receptor, in an assay for guinea pig atria chronotropic response; type: functional

| SMILES | Antagonism [1] | Potency ratio [2] | Antagonism [5] | further results |
| --- | --- | --- | --- | --- |
| C/N=C(\NC#N)NCCSCc1c[nH]c2ccccc12 | inactive | 0.84 |  |  |
| S=C(NCCSCc1cc2ccccc2[nH]1)Nc1ccccc1 |  | 2.54 |  | Antagonism [3]: inactive |
| C/N=C(\NC#N)NCCSCc1cc2ccccc2[nH]1 |  | 1.76 |  | Antagonism [4]: inactive |
| CS/C(=N\CCSCc1c[nH]c2ccccc12)NC#N |  | 2.56 | > 1 |  |
| C/N=C(\S)NCCSCc1c[nH]c2ccccc12 | > 1 | 1.06 |  |  |
| CN/C(=N\CCSCc1nc[nH]c1C)NC#N |  | 36.8 | > 1 |  |
| C/N=C(\S)NCCSCc1cc2ccccc2[nH]1 |  | 3.35 | > 1 |  |
| CS/C(=N\CCSCc1cc2ccccc2[nH]1)NC#N |  | 6.04 |  | Antagonism [6]: Non-competitive antagonist |
| S=C(NCCSCc1c[nH]c2ccccc12)Nc1ccccc1 | inactive |  |  | Potency ratio [7]: 1.16 |
